The supplement of paper PMC13380429

Legend:
[1] = test system: A549-ACE2 infected with SARS-CoV-2; test: cell count relative to DMSO; higher = less toxic; conditions: 24 h
A549-ACE2 [2] = test: drug-induced phospholipidosis relative to tamoxifen; higher = more phospholipidosis
HepG2 [3] = test: relative viability EC50 (midpoint between 100% and the lowest measured viability); higher = less toxic; conditions: 72 h
Calu-3 [4] = test: as above; conditions: 72 h
HepG2 [5] = test: cell viability relative to DMSO; higher = less toxic; conditions: 72 h
Caco-2 [6] = test: as above; conditions: 72 h
U2OS [7] = test: as above; conditions: 72 h
Vero E6 [8] = test: as above; conditions: 72 h
Calu-3 [9] = test: as above; conditions: 72 h
A549-ACE2 [10] = test: phospholipidosis EC50; higher = less potent phospholipidosis inducer
[11] = test system: A549-ACE2 infected with SARS-CoV-2; test: SARS-CoV-2 infection rate relative to DMSO; higher = more infection; conditions: 24 h
HepG2 [12] = test: drug sensitivity score (DSS) for viability; higher = more toxic; extreme values may be limits of the assay; conditions: 72 h
Caco-2 [13] = test: as above; conditions: 72 h
U2OS [14] = test: as above; conditions: 72 h
Vero E6 [15] = test: as above; conditions: 72 h
Calu-3 [16] = test: as above; conditions: 72 h
[17] = test system: A549-ACE2 infected with SARS-CoV-2; test: morphology score (similarity to uninfected cells); higher = more like uninfected cells; conditions: 24 h
Caco-2 [18] = test: relative viability EC50 (midpoint between 100% and the lowest measured viability); higher = less toxic; conditions: 72 h
U2OS [19] = test: as above; conditions: 72 h
Vero E6 [20] = test: as above; conditions: 72 h

Oc1ccc2c(c1)CC[C@H](c1ccccc1)[C@@H]2c1ccc(OCCN2CCCC2)cc1 [lasofoxifene]
Conditions | SARS-CoV-2 infection rate [%] | cell count [%] | cell viability [%] | morphology score | phospholipidosis EC50 [nM]
A549-ACE2 [10], 24 h | – | – | – | – | 2320
A549-ACE2 [10], 48 h | – | – | – | – | 2820
A549-ACE2 [10], 72 h | – | – | – | – | 3000
Caco-2 [6], 1 nM | – | – | 101 | – | –
Caco-2 [6], 10 nM | – | – | 106 | – | –
Caco-2 [6], 100 nM | – | – | 97.5 | – | –
Caco-2 [6], 1000 nM | – | – | 100 | – | –
Caco-2 [6], 10000 nM | – | – | 60.1 | – | –
Calu-3 [9], 1 nM | – | – | 88.7 | – | –
Calu-3 [9], 10 nM | – | – | 96.6 | – | –
Calu-3 [9], 100 nM | – | – | 97.6 | – | –
Calu-3 [9], 1000 nM | – | – | 95.9 | – | –
Calu-3 [9], 10000 nM | – | – | 3.8 | – | –
HepG2 [5], 1 nM | – | – | 93.4 | – | –
HepG2 [5], 10 nM | – | – | 97.3 | – | –
HepG2 [5], 100 nM | – | – | 106 | – | –
HepG2 [5], 1000 nM | – | – | 93.8 | – | –
HepG2 [5], 10000 nM | – | – | 27.6 | – | –
U2OS [7], 1 nM | – | – | 105 | – | –
U2OS [7], 10 nM | – | – | 99.3 | – | –
U2OS [7], 100 nM | – | – | 102 | – | –
U2OS [7], 1000 nM | – | – | 95 | – | –
U2OS [7], 10000 nM | – | – | 69.3 | – | –
Vero E6 [8], 1 nM | – | – | 99.5 | – | –
Vero E6 [8], 10 nM | – | – | 103 | – | –
Vero E6 [8], 100 nM | – | – | 103 | – | –
Vero E6 [8], 1000 nM | – | – | 102 | – | –
Vero E6 [8], 10000 nM | – | – | 61.2 | – | –
[1], 0.1 µM | – | 105 | – | – | –
[1], 0.3 µM | – | 102 | – | – | –
[1], 1 µM | – | 106 | – | – | –
[1], 3 µM | – | 120 | – | – | –
[11], 0.1 µM | 98 | – | – | – | –
[11], 0.3 µM | 95 | – | – | – | –
[11], 1 µM | 78 | – | – | – | –
[11], 3 µM | 40 | – | – | – | –
[17], 0.1 µM | – | – | – | 0.1 | –
[17], 0.3 µM | – | – | – | 0.07 | –
[17], 1 µM | – | – | – | 0.48 | –
[17], 3 µM | – | – | – | 0.72 | –

drug-induced phospholipidosis [%], A549-ACE2 [2]
Conditions | 0.3 µM | 0.833333 µM | 3.33333 µM | 6.66667 µM | 10 µM
24 h | 8.45 | 22 | 81.6 | 102 | 112
48 h | 7.62 | 12.5 | 79.3 | 91.7 | 119
72 h | 6.02 | 12 | 69 | 83.8 | 120

Conditions | drug sensitivity score | relative viability EC50 [nM]
Caco-2 [13] | 2 | –
Calu-3 [4] | – | 2840
Calu-3 [16] | 5.9 | –
HepG2 [3] | – | 2460
HepG2 [12] | 5 | –
U2OS [14] | 2.2 | –
Vero E6 [15] | 1.8 | –

c1cc2c(cc1C1CCCCC1)c1c3n2CCNC3CCC1 (stereo not drawn) [tetrindole]
Conditions | SARS-CoV-2 infection rate [%] | cell count [%] | cell viability [%] | morphology score | phospholipidosis EC50 [nM]
A549-ACE2 [10], 24 h | – | – | – | – | 6500
A549-ACE2 [10], 48 h | – | – | – | – | 2520
A549-ACE2 [10], 72 h | – | – | – | – | 3190
Caco-2 [6], 1 nM | – | – | 101 | – | –
Caco-2 [6], 10 nM | – | – | 92.3 | – | –
Caco-2 [6], 100 nM | – | – | 92.9 | – | –
Caco-2 [6], 1000 nM | – | – | 98.5 | – | –
Caco-2 [6], 10000 nM | – | – | 6.9 | – | –
Calu-3 [9], 1 nM | – | – | 91.3 | – | –
Calu-3 [9], 10 nM | – | – | 94.9 | – | –
Calu-3 [9], 100 nM | – | – | 93.8 | – | –
Calu-3 [9], 1000 nM | – | – | 88.7 | – | –
Calu-3 [9], 10000 nM | – | – | 0.8 | – | –
HepG2 [5], 1 nM | – | – | 101 | – | –
HepG2 [5], 10 nM | – | – | 107 | – | –
HepG2 [5], 100 nM | – | – | 95.8 | – | –
HepG2 [5], 1000 nM | – | – | 83.2 | – | –
HepG2 [5], 10000 nM | – | – | 0.5 | – | –
U2OS [7], 1 nM | – | – | 94.8 | – | –
U2OS [7], 10 nM | – | – | 104 | – | –
U2OS [7], 100 nM | – | – | 97.6 | – | –
U2OS [7], 1000 nM | – | – | 99.5 | – | –
U2OS [7], 10000 nM | – | – | 24.1 | – | –
Vero E6 [8], 1 nM | – | – | 97.9 | – | –
Vero E6 [8], 10 nM | – | – | 91.4 | – | –
Vero E6 [8], 100 nM | – | – | 97.1 | – | –
Vero E6 [8], 1000 nM | – | – | 93.9 | – | –
Vero E6 [8], 10000 nM | – | – | 1.3 | – | –
[1], 0.1 µM | – | 102 | – | – | –
[1], 0.3 µM | – | 101 | – | – | –
[1], 1 µM | – | 102 | – | – | –
[1], 3 µM | – | 117 | – | – | –
[11], 0.1 µM | 102 | – | – | – | –
[11], 0.3 µM | 96 | – | – | – | –
[11], 1 µM | 77 | – | – | – | –
[11], 3 µM | 28 | – | – | – | –
[17], 0.1 µM | – | – | – | 0.02 | –
[17], 0.3 µM | – | – | – | 0.07 | –
[17], 1 µM | – | – | – | 0.29 | –
[17], 3 µM | – | – | – | 0.87 | –

drug-induced phospholipidosis [%], A549-ACE2 [2]
Conditions | 0.3 µM | 0.833333 µM | 3.33333 µM | 6.66667 µM | 10 µM | 30 µM
24 h | 5.21 | 10.2 | 71.6 | 84.5 | 84.9 | 215
48 h | 7.95 | 8.82 | 80.8 | 101 | 115 | –
72 h | 7.78 | 3.52 | 72.2 | 101 | 122 | –

Conditions | drug sensitivity score | relative viability EC50 [nM]
Caco-2 [13] | 5.4 | –
Caco-2 [18] | – | 3050
Calu-3 [4] | – | 2220
Calu-3 [16] | 7.4 | –
HepG2 [3] | – | 1880
HepG2 [12] | 8.3 | –
U2OS [14] | 4.3 | –
U2OS [19] | – | 3110
Vero E6 [15] | 6.4 | –
Vero E6 [20] | – | 2680
